These are literature values, as cited in PMC3384292 (Journal of the American Chemical Society, 2012).

This data set addresses thrombin (Homo sapiens, UniProt P00734).

For the substance hirudin, the “inhibition constant to thrombin” value was “femtomolar”.
